# Laboratory results: ChEMBL document CHEMBL3046377, “Bioactive ellagitannins from Cunonia macrophylla, an endemic Cunoniaceae from New Caledonia” (Phytochemistry, 2005)
# pIC50: −log10 of the molar value.
# Legend:
# [1] = Inhibition of xanthine oxidase assessed as conversion of xanthine to uric acid incubated for 3 min
# Candida albicans [2] = experiment: Antimicrobial activity against Candida albicans at 100 ug after 24 hr by disk diffusion method; type: functional; conditions: read-out: DIZ
# Corynebacterium accolens [3] = experiment: Antimicrobial activity against Corynebacterium accolens at 100 ug after 24 hr by disk diffusion method; type: functional; conditions: read-out: DIZ
# Staphylococcus aureus [4] = experiment: Antimicrobial activity against Staphylococcus aureus at 100 ug after 24 hr by disk diffusion method; type: functional; conditions: read-out: DIZ
# [5] = system: Pectobacterium carotovorum; experiment: Antimicrobial activity against Pectobacterium carotovorum at 100 ug after 24 hr by disk diffusion method; type: functional; conditions: read-out: DIZ
# Corynebacterium accolens [6] = experiment: Antimicrobial activity against Corynebacterium accolens at 10 ug after 24 hr by disk diffusion method; type: functional, organism-based
# Staphylococcus aureus [7] = experiment: Antimicrobial activity against Staphylococcus aureus at 10 ug after 24 hr by disk diffusion method; type: functional, organism-based
# [8] = system: Pectobacterium carotovorum; experiment: Antimicrobial activity against Pectobacterium carotovorum at 10 ug after 24 hr by disk diffusion method; type: functional, organism-based
# Candida albicans [9] = experiment: Antimicrobial activity against Candida albicans at 20 ug after 24 hr by disk diffusion method; type: functional, organism-based
Molecule,pIC50 [1],zone of inhibition at 100 µg/disc (Candida albicans [2]) [mm],zone of inhibition at 100 µg/disc (Corynebacterium accolens [3]) [mm],zone of inhibition at 100 µg/disc (Staphylococcus aureus [4]) [mm],zone of inhibition at 100 µg/disc [5] [mm],inhibition zone (IZ) (Corynebacterium accolens [6]) [mm],inhibition zone (IZ) (Staphylococcus aureus [7]) [mm],inhibition zone (IZ) [8] [mm],inhibition zone (IZ) (Candida albicans [9]) [mm]
O=C(O)C[C@@H]1C(=O)O[C@H]2[C@@H]3OC(=O)c4cc(O)c(O)c(O)c4-c4c(cc(O)c(O)c4O)C(=O)OC[C@H]2O[C@@H](OC(=O)c2cc(O)c(O)c(O)c2)[C@@H]3OC(=O)c2cc(O)c(O)c3c2[C@H]1[C@H](O)C(=O)O3 [CHEBULAGIC ACID],4.32,12,10,11,19,–,–,–,–
O=C(O[C@@H]1O[C@@H]2COC(=O)c3cc(O)c(O)c(O)c3-c3c(cc(O)c(O)c3O)C(=O)O[C@H]([C@H]1O)[C@@H]2O)c1cc(O)c(O)c(O)c1 [CORILAGIN],< 4.00,12,12,12,20,–,–,–,–
O=c1oc2c(O)c(O[C@@H]3OC[C@@H](O)[C@H](O)[C@H]3O)cc3c(=O)oc4c(O)c(O)cc1c4c23 [ELLAGIC ACID 4-O-XYLOPYRANOSIDE],5.33,0,0,0,12,–,–,–,–
O=c1oc2c(O)c(O)cc3c(=O)oc4c(O)c(O)cc1c4c23 [ELLAGIC ACID],5.03,10,12,0,15,–,–,–,–
O=C(O)c1cc(O)c(O)c(O)c1 [GALLIC ACID],4.38,7,7,7,13,–,–,–,–
O=C(Oc1c(O)cc2c(c1O)-c1c(cc(O)c(O)c1O)C(=O)OC[C@H]1O[C@@H](OC(=O)c3cc(O)c(O)c(O)c3)[C@H](O)[C@@H](OC2=O)[C@@H]1O)c1cc(O)c(O)c(O)c1 [MALLOREPANIN],< 4.00,10,10,10,15,–,–,–,–
O=C(O[C@@H]1O[C@@H]2COC(=O)c3cc(O)c(O)c(O)c3-c3c(cc(Oc4c(C(=O)O)cc(O)c(O)c4O)c(O)c3O)C(=O)O[C@H]([C@H]1O)[C@@H]2O)c1cc(O)c(O)c(O)c1 [MALLOTINIC ACID],< 4.00,9,9,9,13,–,–,–,–
O=c1c(O)c(-c2ccc(O)c(O)c2)oc2cc(O)cc(O)c12 [QUERCETIN],5.00,–,–,–,–,–,–,–,–
GENTAMICIN SULFATE,–,–,–,–,–,28,14,21,–
NYSTATIN,–,–,–,–,–,–,–,–,11
